# Data published in ChEMBL document CHEMBL1201862, “PubChem BioAssay data set” (2004).
# The source made the active and inactive calls.
# Columns and labels:
# [1] = biological target: Peroxisome proliferator-activated receptor gamma/Nuclear receptor coactivator 2 (Homo sapiens, UniProt P37231); test: (§1) TR-FRET dose response biochemical High Throughput Screening assay for agonists of the steroid receptor coactivator 2 (SRC-2) recruitment by the peroxisome proliferator-activated receptor gamma (PPAR gamma): non-selective agonists. [Related pubchem assays: 1297, 1032 ]; format: functional
# [2] = biological target: Peroxisome proliferator-activated receptor gamma/Nuclear receptor coactivator 1 (Homo sapiens, UniProt P37231); test: as §1, with “1 (SRC-1)” for “2 (SRC-2)”, “assays (depositor defined):AID1300, AID1808, AID504735, AID631]” for “assays: 1297, 1032 ]”; format: protein assay
# Peroxisome proliferator-activated receptor gamma/Nuclear receptor coactivator 1, sequence (P37231 whole entry): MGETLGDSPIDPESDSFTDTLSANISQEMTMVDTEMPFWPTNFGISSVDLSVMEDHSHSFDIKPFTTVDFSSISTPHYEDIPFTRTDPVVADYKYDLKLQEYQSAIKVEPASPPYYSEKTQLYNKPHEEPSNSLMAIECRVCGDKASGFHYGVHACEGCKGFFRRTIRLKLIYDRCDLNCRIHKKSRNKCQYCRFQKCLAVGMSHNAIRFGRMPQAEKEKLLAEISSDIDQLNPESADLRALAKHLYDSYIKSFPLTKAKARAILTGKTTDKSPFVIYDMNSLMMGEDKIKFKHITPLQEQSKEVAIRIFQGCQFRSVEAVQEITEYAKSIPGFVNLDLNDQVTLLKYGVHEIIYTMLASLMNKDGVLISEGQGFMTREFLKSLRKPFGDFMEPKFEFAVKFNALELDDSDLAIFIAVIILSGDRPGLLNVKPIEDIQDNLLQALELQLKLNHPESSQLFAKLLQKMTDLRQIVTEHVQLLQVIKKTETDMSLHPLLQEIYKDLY
# Peroxisome proliferator-activated receptor gamma/Nuclear receptor coactivator 1, sequence (Q15788 whole entry, further chain): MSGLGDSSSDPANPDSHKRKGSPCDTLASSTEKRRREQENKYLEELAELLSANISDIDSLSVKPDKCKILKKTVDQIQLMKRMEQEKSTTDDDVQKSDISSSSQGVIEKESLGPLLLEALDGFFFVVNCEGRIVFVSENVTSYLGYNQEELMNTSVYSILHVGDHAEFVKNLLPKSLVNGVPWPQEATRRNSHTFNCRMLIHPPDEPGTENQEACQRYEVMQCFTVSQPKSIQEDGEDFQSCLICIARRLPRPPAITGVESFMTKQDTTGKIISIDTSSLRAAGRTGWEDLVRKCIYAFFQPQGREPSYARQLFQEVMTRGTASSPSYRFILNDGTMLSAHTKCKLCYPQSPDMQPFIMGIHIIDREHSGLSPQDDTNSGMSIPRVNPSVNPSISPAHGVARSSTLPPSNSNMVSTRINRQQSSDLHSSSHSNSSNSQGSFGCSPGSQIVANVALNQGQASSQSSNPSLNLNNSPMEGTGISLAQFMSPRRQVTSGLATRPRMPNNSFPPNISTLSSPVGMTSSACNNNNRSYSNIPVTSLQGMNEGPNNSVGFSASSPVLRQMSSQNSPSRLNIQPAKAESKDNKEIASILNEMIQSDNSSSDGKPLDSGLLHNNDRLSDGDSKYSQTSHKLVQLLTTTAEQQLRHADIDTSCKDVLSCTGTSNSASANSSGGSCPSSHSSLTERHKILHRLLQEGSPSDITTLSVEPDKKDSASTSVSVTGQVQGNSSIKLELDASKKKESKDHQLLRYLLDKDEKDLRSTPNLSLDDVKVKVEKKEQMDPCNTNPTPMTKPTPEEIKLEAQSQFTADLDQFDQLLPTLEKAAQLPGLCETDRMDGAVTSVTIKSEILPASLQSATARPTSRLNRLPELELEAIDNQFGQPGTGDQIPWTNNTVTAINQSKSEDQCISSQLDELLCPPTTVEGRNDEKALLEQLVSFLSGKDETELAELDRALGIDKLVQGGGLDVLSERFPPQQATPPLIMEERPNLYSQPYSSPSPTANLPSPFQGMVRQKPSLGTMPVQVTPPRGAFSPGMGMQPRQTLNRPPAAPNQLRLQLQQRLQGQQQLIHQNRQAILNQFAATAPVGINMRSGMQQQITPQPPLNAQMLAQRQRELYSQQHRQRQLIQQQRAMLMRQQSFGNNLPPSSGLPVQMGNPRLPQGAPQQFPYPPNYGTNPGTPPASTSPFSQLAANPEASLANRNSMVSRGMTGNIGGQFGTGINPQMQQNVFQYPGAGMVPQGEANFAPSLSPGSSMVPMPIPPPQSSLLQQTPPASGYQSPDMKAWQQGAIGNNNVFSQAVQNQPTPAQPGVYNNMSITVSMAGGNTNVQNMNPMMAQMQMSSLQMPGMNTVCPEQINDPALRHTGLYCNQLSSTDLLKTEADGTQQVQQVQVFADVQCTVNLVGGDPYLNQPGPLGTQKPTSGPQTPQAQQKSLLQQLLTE
# [3] = biological target: Peroxisome proliferator-activated receptor gamma/Nuclear receptor coactivator 3 (Homo sapiens, UniProt P37231); test: as §1, with “3 (SRC-3)” for “2 (SRC-2)”, “1301 (Confirmation screen.), 1048 (Primary screen.)]” for “1297, 1032 ]”; format: functional
# Peroxisome proliferator-activated receptor gamma/Nuclear receptor coactivator 3, sequence (P37231 whole entry): as the sequence (P37231 whole entry) above
# Peroxisome proliferator-activated receptor gamma/Nuclear receptor coactivator 3, sequence (Q9Y6Q9 whole entry, further chain): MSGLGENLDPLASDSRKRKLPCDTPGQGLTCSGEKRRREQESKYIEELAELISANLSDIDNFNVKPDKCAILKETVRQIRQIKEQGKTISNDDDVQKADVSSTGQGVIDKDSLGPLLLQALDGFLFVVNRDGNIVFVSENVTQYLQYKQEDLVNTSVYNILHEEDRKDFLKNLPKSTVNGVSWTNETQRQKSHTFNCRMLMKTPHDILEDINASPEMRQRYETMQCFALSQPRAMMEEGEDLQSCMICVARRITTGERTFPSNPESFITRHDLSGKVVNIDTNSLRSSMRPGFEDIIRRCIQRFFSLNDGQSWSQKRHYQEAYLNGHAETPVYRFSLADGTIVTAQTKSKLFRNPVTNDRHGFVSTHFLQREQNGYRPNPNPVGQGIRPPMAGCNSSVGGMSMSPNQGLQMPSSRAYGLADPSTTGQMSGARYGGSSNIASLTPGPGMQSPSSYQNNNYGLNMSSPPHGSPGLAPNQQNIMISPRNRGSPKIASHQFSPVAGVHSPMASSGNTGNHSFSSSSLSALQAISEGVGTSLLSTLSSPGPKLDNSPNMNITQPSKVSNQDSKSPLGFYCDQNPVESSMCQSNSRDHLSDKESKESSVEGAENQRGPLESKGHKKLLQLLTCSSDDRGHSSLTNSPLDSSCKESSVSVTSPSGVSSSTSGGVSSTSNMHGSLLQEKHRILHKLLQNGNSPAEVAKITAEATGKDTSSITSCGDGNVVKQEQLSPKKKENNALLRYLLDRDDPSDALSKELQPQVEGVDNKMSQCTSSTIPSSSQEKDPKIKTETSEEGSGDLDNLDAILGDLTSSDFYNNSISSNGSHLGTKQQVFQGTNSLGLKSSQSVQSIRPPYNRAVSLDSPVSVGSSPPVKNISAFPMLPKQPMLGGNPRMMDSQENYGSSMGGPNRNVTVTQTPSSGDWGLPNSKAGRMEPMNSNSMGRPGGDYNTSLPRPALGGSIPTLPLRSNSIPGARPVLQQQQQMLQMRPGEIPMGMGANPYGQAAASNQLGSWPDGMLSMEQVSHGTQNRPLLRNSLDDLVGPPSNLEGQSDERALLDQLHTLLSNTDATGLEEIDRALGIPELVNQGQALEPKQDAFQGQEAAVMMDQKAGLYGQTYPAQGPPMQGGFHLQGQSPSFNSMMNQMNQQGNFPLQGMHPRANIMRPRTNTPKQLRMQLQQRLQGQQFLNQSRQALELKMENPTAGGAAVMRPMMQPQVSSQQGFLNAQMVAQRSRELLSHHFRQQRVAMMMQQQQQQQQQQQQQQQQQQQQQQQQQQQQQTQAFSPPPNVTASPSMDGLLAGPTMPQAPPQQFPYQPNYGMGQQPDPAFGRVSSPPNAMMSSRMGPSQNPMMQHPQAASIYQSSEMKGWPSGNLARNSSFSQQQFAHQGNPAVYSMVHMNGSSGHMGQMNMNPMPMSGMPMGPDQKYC
# [4] = microbe, parasite or virus in culture; format: functional; conditions: Mycobacterium tuberculosis
# [5] = biological target: Voltage-dependent T-type calcium channel subunit alpha-1H (Homo sapiens, UniProt O95180); format: functional;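 also: channel activity triggered by adding a high calcium stimulation buffer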
# Protein Tat = biological target: T1, Protein Tat (Human immunodeficiency virus type 1 group M subtype B (isolate HXB2)(HIV-1), UniProt P04608); format: functional;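 also: tat binding to TAR RNA read out by fluorescence polarization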
# T1 sequence (P04608 whole entry): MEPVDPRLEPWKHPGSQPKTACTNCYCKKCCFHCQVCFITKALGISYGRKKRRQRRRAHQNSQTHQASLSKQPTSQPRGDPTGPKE
# [6] = inhibitors of Vif binding to APOBEC3G peptide, primary screen, biochemical, TR-FRET, GST-Vif 1-94, biotin-A3G peptide, dose response retest (AID 1117319); format: functional;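 also: TR-FRET signal of purified GST-Vif binding a biotinylated A3G peptide; inhibitors lower the FRET signal by blocking Vif and A3G binding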
# Coagulation factor XII = biological target: T2, Coagulation factor XII (Homo sapiens, UniProt P00748); format: functional;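 also: activated factor XIIa alpha cleaving a fluorogenic AMC peptide substrate; inhibitor potency from loss of enzyme activity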
# T2 sequence (P00748 whole entry): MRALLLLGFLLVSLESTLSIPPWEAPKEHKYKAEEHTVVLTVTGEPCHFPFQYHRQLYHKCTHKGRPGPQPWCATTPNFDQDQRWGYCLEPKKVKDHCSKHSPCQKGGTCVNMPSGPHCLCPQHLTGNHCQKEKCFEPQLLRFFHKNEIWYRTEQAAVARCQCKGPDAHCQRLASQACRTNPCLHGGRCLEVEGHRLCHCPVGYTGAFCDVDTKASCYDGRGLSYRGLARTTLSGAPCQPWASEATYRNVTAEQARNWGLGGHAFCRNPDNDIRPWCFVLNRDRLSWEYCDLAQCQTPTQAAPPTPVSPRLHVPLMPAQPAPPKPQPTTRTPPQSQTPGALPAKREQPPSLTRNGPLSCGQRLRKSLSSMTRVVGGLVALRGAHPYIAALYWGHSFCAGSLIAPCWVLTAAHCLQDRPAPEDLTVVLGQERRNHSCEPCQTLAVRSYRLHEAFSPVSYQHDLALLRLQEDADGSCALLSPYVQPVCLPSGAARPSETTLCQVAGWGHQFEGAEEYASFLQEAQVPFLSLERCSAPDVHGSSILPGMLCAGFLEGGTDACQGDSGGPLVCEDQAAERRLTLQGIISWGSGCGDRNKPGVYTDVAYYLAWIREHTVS
# Aminopeptidase N = biological target: T3, Aminopeptidase N (Plasmodium falciparum FcB1/Columbia, UniProt O96935); test: P. falciparum M1AAP inhibitors, biochemical, fluorogenic H-Leu-NHMec substrate, 1536-well (AID 1445); parameters: species or system Plasmodium falciparum 3D7, 3D7
# T3 sequence (O96935 whole entry): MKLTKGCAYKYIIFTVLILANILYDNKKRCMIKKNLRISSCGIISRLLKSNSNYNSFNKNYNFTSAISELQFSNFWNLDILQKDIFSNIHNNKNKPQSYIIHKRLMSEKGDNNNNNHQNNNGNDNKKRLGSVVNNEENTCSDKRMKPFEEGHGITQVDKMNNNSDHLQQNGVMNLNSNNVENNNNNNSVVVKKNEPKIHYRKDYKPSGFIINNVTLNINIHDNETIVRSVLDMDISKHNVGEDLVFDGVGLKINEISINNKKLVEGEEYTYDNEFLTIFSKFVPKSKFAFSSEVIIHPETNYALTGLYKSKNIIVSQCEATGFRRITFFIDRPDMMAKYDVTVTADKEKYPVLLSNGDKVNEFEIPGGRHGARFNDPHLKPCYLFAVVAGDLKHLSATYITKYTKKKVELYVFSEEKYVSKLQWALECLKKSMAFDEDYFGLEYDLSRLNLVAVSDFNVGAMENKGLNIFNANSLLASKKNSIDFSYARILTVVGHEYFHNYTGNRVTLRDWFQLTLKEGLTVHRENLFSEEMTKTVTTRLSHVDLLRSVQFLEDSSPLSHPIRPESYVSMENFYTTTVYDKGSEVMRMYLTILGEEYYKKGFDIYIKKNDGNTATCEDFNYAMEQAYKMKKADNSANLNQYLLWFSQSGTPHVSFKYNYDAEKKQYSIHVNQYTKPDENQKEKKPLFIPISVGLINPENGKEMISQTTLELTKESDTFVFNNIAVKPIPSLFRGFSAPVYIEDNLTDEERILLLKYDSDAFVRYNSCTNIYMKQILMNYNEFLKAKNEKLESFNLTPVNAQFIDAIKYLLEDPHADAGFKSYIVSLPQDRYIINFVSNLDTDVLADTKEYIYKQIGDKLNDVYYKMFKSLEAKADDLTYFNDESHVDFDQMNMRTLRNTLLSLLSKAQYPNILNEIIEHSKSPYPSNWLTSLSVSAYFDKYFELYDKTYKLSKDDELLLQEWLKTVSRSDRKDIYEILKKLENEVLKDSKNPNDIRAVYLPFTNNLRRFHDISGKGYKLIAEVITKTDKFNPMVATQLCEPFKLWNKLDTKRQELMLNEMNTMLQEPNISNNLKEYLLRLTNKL
# [7] = biological target: T4, Corticotropin-releasing factor receptor 2/Corticotropin-releasing factor-binding protein (Homo sapiens, UniProt P24387+Q13324); test: Dose Response confirmation of uHTS hits for small molecule antagonists of the CRF-binding protein and CRF-R2 receptor complex.; format: functional; conditions: read-out: IC50_Mean
# T4 sequence (Q13324 whole entry): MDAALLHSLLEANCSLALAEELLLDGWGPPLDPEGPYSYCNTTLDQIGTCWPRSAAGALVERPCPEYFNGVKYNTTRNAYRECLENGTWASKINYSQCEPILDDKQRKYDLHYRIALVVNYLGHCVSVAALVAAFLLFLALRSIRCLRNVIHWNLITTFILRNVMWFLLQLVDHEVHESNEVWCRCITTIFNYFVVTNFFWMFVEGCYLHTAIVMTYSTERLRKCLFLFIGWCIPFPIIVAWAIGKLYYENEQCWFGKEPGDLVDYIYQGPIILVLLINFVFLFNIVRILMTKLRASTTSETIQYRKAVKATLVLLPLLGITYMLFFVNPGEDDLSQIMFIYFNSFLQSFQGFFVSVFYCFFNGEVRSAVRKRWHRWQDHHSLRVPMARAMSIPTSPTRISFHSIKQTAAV
# T4 sequence (P24387 whole entry): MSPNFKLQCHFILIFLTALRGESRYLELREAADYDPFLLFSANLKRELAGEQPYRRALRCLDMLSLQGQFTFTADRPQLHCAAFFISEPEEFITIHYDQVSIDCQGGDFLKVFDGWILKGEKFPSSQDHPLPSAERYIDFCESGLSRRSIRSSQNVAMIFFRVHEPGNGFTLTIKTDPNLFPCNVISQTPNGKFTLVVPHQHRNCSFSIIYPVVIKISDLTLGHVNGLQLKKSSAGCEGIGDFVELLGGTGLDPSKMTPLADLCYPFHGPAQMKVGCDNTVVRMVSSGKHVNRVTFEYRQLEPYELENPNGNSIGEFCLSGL
# [8] = biological target: T4, Corticotropin-releasing factor receptor 2/Corticotropin-releasing factor-binding protein; test: activators of CRF receptor 2 with binding protein – uHTS hits, confirmation (AID 602473); format: functional; conditions: read-out: EC50_Mean
# SUMO-activating enzyme = SUMO-activating enzyme (Homo sapiens, UniProt Q9UBT2); test: SUMOylation inhibitor hit validation, confirmation, SUMOylation inhibitor project, biochemical, AlphaScreen (AID 2018); format: functional
# [9] = biological target: T5, Small ubiquitin-related modifier 1 (Homo sapiens, UniProt P63165); test: inhibitors of SUMO1 partner interactions, dose response, biochemical, FRET (AID 624383); format: functional; conditions: read-out: IC50_Mean
# T5 sequence (P63165 whole entry): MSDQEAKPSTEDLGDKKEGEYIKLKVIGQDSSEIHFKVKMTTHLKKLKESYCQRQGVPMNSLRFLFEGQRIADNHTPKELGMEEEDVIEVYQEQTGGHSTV
# [10] = biological target: T5, Small ubiquitin-related modifier 1; test: inhibitors of SUMO1 peptide binding, dose response, biochemical, fluorescence polarization, uHTS hits (AID 624382); format: functional; conditions: read-out: IC50_Mean
# Cytochrome P450 2C19 = Cytochrome P450 2C19 (Homo sapiens, UniProt P33261); test: Cytochrome panel assay with activity outcomes. Panel member name: p450-cyp2c19 Compounds with AC50 equal or less than 10 uM are considered active; format: functional; conditions: read-out: AC50
# Cytochrome P450 2C19, sequence (P33261 whole entry): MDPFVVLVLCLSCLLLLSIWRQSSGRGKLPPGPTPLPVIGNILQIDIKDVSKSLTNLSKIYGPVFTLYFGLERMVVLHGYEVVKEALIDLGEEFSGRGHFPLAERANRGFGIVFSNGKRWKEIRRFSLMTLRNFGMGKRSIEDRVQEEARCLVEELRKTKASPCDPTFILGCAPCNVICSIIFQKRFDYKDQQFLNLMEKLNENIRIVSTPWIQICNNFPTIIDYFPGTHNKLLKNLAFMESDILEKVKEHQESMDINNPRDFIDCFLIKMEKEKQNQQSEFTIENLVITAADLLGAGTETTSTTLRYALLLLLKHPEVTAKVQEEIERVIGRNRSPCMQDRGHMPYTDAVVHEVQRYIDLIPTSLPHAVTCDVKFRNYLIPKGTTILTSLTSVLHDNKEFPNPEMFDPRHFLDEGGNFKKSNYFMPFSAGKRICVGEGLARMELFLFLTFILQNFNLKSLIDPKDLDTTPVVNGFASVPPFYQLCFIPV
# [11] = biological target: Glucose-6-phosphate 1-dehydrogenase (Homo sapiens, UniProt P11413); test: human G6PD enzyme inhibitors, dose response, selectivity assay for P. falciparum G6PD inhibitor project, biochemical, fluorescence (AID 504792); format: functional
# Glucose-6-phosphate 1-dehydrogenase, sequence (P11413 whole entry): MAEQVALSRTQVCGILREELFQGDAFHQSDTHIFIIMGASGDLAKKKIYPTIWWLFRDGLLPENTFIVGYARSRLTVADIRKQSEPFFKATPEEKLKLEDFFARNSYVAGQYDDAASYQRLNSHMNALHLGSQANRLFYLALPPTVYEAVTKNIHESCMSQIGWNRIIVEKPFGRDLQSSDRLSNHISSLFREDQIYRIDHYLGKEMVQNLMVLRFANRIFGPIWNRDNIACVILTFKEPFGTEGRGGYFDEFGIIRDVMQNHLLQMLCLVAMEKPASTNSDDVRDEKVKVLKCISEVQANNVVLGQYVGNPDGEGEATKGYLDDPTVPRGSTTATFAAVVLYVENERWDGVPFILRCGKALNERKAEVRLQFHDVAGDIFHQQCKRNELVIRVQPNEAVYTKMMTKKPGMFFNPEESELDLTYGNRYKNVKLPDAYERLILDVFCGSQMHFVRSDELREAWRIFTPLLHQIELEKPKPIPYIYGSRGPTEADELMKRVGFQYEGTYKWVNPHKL
# [12] = HepG2 cell cytotoxicity, dose response, cytotoxicity control for non-replicating M. tuberculosis project (AID 489018); format: functional; conditions: Mycobacterium tuberculosis
# [13] = inhibitors of intracellular T. cruzi replication, confirmation, NIH3T3 host cells, beta-gal luminescence (AID 2044); format: functional, cell-based;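 also: intracellular parasites grown in NIH/3T3 mouse fibroblasts as host cells; luminescent beta-galactosidase reporter signal from transgenic T. cruzi replicating inside host cells; inhibitors lower the luminescence signal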
# [14] = THP-1 cell cytotoxicity, dose response, cytotoxicity control for non-replicating M. tuberculosis project (AID 489025); format: functional
# cells = format: functional
# [15] = cytotoxicity toward NIH3T3 fibroblasts, dose response, counter-screen, cell-based, ATP luminescence, mouse fibroblasts (AID 2010); format: functional;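 also: cells exposed to compound for about 90 hours before reading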
# [16] = cytotoxicity in HPDE-C7 cells, cell-based, fluorescence, HTS (AID 430); format: functional; conditions: Homo sapiens
# [17] = cytotoxicity in KRAS-transformed pancreatic duct cells, primary screen, cell-based, fluorescence, HTS (AID 431); format: functional; conditions: Homo sapiens;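 also: cell line used: HPDE-C7K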
# Cytochrome P450 2D6 = Cytochrome P450 2D6 (Homo sapiens, UniProt P10635);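 also: CYP2D6 member of a cytochrome P450 panel assay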
# Genome polyprotein = Genome polyprotein (dengue virus type 2, UniProt P29990); test: Dengue-2 NS5 methyltransferase inhibitors, primary screen, biochemical, confirmation dose response (AID 588689); format: functional
structure (smiles),measurement,setting,value
Cc1cccc(OCC(=O)Nc2nnc(-c3ccco3)s2)c1,EC50,[1],> 26.5 µM (not active)
same,EC50,[2],> 26.5 µM (inactive)
same,EC50,[3],> 79.4 µM (not active)
CCn1c(=O)cc(SCC(=O)NCc2ccco2)c2ccccc21,EC50,[1],> 79.4 µM (not active)
same,EC50,[2],> 79.4 µM (inactive)
same,EC50,[3],> 79.4 µM (not active)
O=C(CSc1ncnc2c1oc1ccccc12)Nc1cccc(Cl)c1,EC50,[1],23.7 µM (not active)
same,EC50,[2],37.1 µM (inactive)
same,EC50,[3],> 79.4 µM (not active)
Cc1cc2nc(C3CCN(CC4COc5ccccc5O4)CC3)[nH]c2cc1C (configuration not stated),CC50,[4],30.9 µM (active)
same,EC50,[5],4.9 µM (active)
c1cncc(-c2csc(NCc3ccco3)n2)c1,IC50,Protein Tat,> 100 µM (active)
same,IC50,[6],> 100 µM (active)
same,IC50,Coagulation factor XII,> 50 µM (inactive)
COc1cc(/C=N/NC(=O)c2cccnc2)ccc1OCC(=O)Nc1ccc(C)cc1,IC50,Aminopeptidase N,47.8 µM (active)
CC(C)(C)n1nnnc1C(c1ccc(Cl)cc1)N(Cc1cccnc1)Cc1ccco1 (configuration not stated),IC50,[7],> 47.1 µM (inactive)
same,EC50,[5],3.31 µM (active)
same,EC50,[8],> 53 µM (inactive)
COc1cc(OC)cc(C(=O)N2CCN(Cc3ccccc3C(F)(F)F)CC2)c1,IC50,Coagulation factor XII,> 50 µM (inactive)
O=C(Nc1ccccc1O)c1cc(S(=O)(=O)N2CCOCC2)c(Cl)cc1Cl,IC50,SUMO-activating enzyme,> 100 µM (inactive)
CCNS(=O)(=O)c1ccc(CCC(=O)NCc2ccc(C)cc2)cc1,IC50,Aminopeptidase N,21.8 µM (active)
COc1ccc(-c2nnc(Nc3ccc(S(=O)(=O)Nc4nccs4)cc3)c3ccccc23)cc1,IC50,[9],18.2 µM (active)
same,EC50,[1],9.18 µM (active)
same,EC50,[2],14.9 µM (inactive)
same,EC50,[3],> 79.4 µM (not active)
same,IC50,[7],> 47.1 µM (inactive)
same,IC50,[10],> 66.6 µM (inactive)
same,EC50,[8],> 53 µM (inactive)
Cc1cccc(NC(=O)c2cc(N3C(=O)CCC3=O)ccc2Cl)n1,AC50,Cytochrome P450 2C19,28.2 µM (inconclusive)
same,IC50,Coagulation factor XII,> 50 µM (inactive)
COc1c2ccoc2c(OCC=C(C)C)c2oc(=O)ccc12 [PHELLOPTERIN],IC50,[11],> 80 µM (inactive)
COC(=O)c1sc(NC(=O)c2ccc([N+](=O)[O-])o2)c(C#N)c1C,CC50,[12],> 20 µM (active)
same,EC50,[13],0.255 µM (active)
same,CC50,[14],18.8 µM (active)
same,IC50,cells,6.19 µM (active)
same,EC50,[15],> 60 µM (not active)
Cc1nc2c(C(=O)NCc3ccc4c(c3)OCO4)cnn2c(O)c1Cc1ccccc1F,EC50,[16],9.68 µM (active)
same,EC50,[17],11.6 µM (active)
same,AC50,Cytochrome P450 2D6,25.1 µM (inconclusive)
same,EC50,[5],7.38 µM (active)
O=C(O)Cn1cc(C=C2C(=O)NC(=O)NC2=O)c2ccccc21,IC50,Genome polyprotein,> 100 µM (active)
NCCNC(=O)Cc1cccc(NC(=O)Cc2ccc(Nc3ncnc4c3ncn4[C@@H]3O[C@H](CO)[C@@H](O)[C@H]3O)cc2)c1,IC50,Aminopeptidase N,53.7 µM (active)
